Details of data set [1]: method as in TCMSP database [18]. As to conditions: retrieved from database; ref TCMSP database [18]; in h (unit assumed); cited from earlier work.
The next data set deals with PI3Kδ (p110δ/p85α) (Homo sapiens, UniProt O00329). Description: ADP-Glo Kinase Assay, inhibition of PI3Kδ.
The conditions of data set [2]: retrieved from database; ref TCMSP database [18]; cited from earlier work.
Another data set has as its target PI3Kα (p110α/p85α) (Homo sapiens, UniProt P42336). The data set can be described thus: ADP-Glo Kinase Assay, inhibition of PI3Kα.
The target of a further data set is PI3Kγ (p120γ) (Homo sapiens, UniProt P48736). Description: ADP-Glo Kinase Assay, inhibition of PI3Kγ.
The target in another data set is PI3Kβ (p110β/p85α) (Homo sapiens, UniProt P42338). Description: ADP-Glo Kinase Assay, inhibition of PI3Kβ.

Molecules are shown by their SMILES.

The values that follow come from paper PMC9300271, “Identifying Active Compounds and Mechanisms of Citrus changshan-Huyou Y. B. Chang against URTIs-Associated Inflammation by Network Pharmacology in Combination with Molecular Docking” (Evidence-based Complementary and Alternative Medicine : eCAM, 2022).

PI3Kγ (p120γ), sequence (P48736 whole entry): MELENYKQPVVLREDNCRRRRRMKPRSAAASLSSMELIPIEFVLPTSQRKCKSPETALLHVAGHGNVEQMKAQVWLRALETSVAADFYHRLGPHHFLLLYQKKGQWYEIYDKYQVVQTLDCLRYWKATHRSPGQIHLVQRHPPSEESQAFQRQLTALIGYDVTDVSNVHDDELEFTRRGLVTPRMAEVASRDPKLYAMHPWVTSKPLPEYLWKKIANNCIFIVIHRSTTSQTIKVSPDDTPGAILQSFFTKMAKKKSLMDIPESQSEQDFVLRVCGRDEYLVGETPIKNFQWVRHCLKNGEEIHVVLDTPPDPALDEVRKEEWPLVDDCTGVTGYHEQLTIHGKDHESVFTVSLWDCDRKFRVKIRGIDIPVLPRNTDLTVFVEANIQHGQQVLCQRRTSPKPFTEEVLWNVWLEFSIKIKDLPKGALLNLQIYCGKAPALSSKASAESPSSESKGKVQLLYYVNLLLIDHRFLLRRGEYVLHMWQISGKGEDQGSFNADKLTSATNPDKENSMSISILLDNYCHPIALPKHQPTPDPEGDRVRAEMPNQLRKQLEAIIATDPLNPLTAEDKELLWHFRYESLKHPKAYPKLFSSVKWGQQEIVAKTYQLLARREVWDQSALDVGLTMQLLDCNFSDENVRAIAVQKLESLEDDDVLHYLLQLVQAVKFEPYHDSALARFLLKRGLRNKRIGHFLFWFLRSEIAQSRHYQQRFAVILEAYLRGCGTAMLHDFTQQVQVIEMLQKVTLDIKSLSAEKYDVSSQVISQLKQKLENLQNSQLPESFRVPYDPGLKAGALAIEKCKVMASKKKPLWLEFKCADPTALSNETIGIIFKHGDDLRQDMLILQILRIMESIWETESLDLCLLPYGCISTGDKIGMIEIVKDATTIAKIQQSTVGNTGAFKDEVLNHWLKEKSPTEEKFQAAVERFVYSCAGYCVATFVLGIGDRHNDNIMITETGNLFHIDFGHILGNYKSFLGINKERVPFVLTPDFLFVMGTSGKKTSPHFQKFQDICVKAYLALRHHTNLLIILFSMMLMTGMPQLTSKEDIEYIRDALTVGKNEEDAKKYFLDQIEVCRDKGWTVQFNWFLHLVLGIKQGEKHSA
PI3Kδ (p110δ/p85α), sequence (O00329 whole entry): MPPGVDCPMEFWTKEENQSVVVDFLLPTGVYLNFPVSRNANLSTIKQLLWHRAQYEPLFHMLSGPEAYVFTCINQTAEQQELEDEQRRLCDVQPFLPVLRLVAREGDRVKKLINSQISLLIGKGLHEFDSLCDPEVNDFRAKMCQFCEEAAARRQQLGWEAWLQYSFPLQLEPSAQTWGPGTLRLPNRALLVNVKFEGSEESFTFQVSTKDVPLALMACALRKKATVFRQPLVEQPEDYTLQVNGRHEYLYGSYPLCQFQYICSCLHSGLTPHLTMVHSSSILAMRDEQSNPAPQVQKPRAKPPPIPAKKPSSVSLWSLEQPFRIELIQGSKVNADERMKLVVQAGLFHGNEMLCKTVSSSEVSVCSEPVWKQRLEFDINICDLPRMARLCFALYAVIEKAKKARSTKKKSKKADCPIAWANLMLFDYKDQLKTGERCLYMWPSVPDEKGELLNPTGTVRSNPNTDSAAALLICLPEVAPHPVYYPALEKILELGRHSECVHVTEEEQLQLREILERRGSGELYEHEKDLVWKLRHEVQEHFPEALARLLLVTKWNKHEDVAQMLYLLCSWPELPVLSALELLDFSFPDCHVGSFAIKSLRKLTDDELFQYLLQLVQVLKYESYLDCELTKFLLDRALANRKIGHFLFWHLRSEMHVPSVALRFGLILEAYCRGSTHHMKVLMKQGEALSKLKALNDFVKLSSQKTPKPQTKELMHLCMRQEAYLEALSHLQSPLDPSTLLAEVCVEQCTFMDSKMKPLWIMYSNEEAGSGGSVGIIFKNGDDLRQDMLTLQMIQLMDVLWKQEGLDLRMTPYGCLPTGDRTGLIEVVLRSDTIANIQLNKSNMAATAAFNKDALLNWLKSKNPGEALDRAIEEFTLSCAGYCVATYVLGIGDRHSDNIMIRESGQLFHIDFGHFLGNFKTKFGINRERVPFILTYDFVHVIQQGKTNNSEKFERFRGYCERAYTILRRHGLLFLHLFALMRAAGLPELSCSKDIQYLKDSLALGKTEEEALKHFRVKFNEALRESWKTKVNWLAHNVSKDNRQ
PI3Kδ (p110δ/p85α), sequence (P27986 whole entry partner): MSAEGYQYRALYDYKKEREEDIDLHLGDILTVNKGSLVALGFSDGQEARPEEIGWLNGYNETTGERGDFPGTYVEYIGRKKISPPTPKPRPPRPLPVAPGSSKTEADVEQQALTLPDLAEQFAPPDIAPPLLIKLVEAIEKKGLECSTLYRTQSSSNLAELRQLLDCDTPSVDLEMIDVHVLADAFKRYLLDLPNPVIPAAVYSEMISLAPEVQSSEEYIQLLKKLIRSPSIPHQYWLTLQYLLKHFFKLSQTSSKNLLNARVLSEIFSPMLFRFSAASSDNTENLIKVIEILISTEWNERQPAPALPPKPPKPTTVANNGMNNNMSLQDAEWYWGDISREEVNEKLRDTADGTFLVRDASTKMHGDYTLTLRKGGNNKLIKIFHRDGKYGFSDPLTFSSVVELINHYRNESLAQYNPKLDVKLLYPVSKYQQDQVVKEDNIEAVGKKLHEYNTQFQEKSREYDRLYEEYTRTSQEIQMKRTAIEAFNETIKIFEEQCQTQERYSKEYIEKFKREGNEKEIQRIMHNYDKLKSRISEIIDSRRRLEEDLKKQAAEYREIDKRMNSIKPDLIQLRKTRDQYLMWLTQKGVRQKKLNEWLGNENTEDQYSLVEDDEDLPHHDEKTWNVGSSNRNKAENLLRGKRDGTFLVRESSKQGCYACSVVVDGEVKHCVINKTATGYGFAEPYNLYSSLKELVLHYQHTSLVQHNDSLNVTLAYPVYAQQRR
PI3Kα (p110α/p85α), sequence (P42336 whole entry): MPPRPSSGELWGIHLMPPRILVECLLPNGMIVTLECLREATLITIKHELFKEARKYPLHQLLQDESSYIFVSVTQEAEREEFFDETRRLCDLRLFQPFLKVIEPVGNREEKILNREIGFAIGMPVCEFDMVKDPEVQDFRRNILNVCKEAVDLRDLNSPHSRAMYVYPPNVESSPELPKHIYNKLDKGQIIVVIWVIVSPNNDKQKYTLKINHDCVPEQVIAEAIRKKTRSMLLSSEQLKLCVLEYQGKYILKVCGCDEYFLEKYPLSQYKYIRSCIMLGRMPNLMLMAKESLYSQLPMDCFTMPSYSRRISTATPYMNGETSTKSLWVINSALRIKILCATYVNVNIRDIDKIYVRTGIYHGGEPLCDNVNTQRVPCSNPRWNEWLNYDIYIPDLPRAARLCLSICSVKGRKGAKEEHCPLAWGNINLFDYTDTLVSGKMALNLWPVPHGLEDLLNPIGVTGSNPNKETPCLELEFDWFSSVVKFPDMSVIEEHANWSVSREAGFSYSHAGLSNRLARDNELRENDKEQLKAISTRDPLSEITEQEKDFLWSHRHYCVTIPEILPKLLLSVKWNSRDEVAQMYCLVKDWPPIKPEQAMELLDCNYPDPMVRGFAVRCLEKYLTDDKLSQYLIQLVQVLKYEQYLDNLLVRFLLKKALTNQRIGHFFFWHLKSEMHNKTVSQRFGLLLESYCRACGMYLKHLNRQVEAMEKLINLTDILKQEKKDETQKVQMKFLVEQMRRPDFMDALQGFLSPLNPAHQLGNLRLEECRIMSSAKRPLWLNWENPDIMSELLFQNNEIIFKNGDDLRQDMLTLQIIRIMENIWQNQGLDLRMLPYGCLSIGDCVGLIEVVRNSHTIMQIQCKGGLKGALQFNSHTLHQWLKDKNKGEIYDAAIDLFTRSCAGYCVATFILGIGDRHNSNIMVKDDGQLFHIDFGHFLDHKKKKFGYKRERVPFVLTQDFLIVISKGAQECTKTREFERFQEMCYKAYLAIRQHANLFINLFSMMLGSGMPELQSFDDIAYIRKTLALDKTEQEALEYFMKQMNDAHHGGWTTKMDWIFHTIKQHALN
PI3Kα (p110α/p85α), sequence (P27986 whole entry partner): as the sequence (P27986 whole entry partner) above
PI3Kβ (p110β/p85α), sequence (P42338 whole entry): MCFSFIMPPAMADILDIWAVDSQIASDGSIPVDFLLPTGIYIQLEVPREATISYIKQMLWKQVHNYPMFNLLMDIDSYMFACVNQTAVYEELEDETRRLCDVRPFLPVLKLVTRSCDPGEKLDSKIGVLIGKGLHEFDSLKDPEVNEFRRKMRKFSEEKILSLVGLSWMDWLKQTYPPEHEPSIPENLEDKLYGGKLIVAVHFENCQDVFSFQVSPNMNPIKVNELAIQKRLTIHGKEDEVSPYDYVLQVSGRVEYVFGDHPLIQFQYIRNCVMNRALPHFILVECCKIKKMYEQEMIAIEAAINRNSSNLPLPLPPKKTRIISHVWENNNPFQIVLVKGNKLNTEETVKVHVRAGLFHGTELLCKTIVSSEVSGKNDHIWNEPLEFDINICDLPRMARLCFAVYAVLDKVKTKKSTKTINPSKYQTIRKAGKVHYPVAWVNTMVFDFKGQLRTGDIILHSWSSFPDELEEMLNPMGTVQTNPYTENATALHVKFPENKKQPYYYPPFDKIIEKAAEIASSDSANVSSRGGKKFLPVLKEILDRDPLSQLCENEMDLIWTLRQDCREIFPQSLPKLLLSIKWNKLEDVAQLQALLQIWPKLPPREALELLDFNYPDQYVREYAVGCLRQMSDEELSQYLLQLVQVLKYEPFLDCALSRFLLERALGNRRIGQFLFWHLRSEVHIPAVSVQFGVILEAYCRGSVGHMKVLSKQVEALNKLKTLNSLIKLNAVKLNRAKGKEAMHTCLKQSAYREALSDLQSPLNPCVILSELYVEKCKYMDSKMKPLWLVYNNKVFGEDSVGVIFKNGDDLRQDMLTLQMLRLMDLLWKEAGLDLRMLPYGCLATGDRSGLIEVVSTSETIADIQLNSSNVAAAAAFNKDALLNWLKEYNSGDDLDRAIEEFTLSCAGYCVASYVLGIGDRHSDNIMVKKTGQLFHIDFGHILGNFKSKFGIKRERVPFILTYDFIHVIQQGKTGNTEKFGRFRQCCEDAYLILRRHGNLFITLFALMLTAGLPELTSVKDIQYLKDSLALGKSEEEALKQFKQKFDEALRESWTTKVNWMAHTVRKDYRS
PI3Kβ (p110β/p85α), sequence (P27986 whole entry partner): as the sequence (P27986 whole entry partner) above

On to `COc1ccc([C@@H]2CC(=O)c3c(O)cc(O)cc3O2)cc1O` [HES, hesperetin], for which the “HL (drug half-life)” value in data set [1] was 15.78. For the same molecule, the IC50 against PI3Kδ (p110δ/p85α), on PI3Kα (p110α/p85α), against PI3Kγ (p120γ) and on PI3Kβ (p110β/p85α) was more than 40 µM each time. For the same molecule, the “OB (oral bioavailability)” value in data set [2] is 70.31%.
Take `COc1ccc(-c2cc(=O)c3c(OC)c(OC)c(OC)c(OC)c3o2)cc1OC` [NOB, nobiletin]: the “HL (drug half-life)” value in data set [1] is reported as 16.20. The “OB (oral bioavailability)” value in data set [2] is given as 61.67%.
Take `O=c1cc(-c2ccc(O)c(O)c2)oc2cc(O)cc(O)c12` [LUT, luteolin]: in data set [1], the “HL (drug half-life)” value is given as 15.94. For the same molecule, the IC50 at PI3Kδ (p110δ/p85α) was 1.55 ± 0.15 µM; against PI3Kα (p110α/p85α), 2.49 ± 0.34 µM; against PI3Kγ (p120γ), 5.79 ± 0.1 µM; on PI3Kβ (p110β/p85α), 2.95 ± 0.19 µM. Also, the “OB (oral bioavailability)” value in data set [2] is 36.16%.
With `COc1ccc(-c2cc(=O)c3c(OC)c(OC)c(OC)c(OC)c3o2)cc1` [TAN, tangeretin], the 50% inhibitory concentration (IC50) against PI3Kδ (p110δ/p85α) was more than 40 µM; against PI3Kα (p110α/p85α), more than 40 µM; against PI3Kγ (p120γ) it was 17.7 ± 1.16 µM; against PI3Kβ (p110β/p85α), more than 40 µM. Moreover, in data set [2], the “OB (oral bioavailability)” value is 21.38%.
As for `CC(C)=CCC/C(C)=C/COc1ccc2ccc(=O)oc2c1` [AUR, auraptene], the 50% inhibitory concentration (IC50) was more than 40 µM against PI3Kδ (p110δ/p85α), more than 40 µM on PI3Kα (p110α/p85α), 13.8 ± 1.31 µM at PI3Kγ (p120γ) and more than 40 µM against PI3Kβ (p110β/p85α). The “OB (oral bioavailability)” value in data set [2] is 25.62%.
Turning to `O=C1C[C@@H](c2ccc(O)cc2)Oc2cc(O)cc(O)c21` [NAR, naringenin], the half-inhibitory concentration (IC50) against PI3Kδ (p110δ/p85α), against PI3Kα (p110α/p85α), on PI3Kγ (p120γ) and against PI3Kβ (p110β/p85α) was more than 40 µM throughout. Further, in data set [2], the “OB (oral bioavailability)” value is 59.29%.
